Measured values: patent publication US20190192521A1, “Methods of Treating Arid1A-Mutated Cancers With HDAC6 Inhibitors and EZH2 Inhibitors” (The Wistar Institute of Anatomy and Biology, priority 2016, published 2019)
Where no end group is shown, it is not given here.

Key:
[1] = system: p53 target genes (BAX, PUMA, NOXA, CDKN1A) in ARID1A-mutated TOV21G cells; assay: RNA-seq of p53 target genes; assay type: cell-based, human; conditions: 312 nM
Source text: RNA was extracted and utilized for next generation sequencing (RNA-seq). Expression of p53 target genes known to regulate apoptosis such as BAX, PUMA and NOXA, and known to regulate cell cycle arrest such as CDKN1A were not altered by HDAC6 inhibition in RNA-seq analysis.

[2] = system: ovarian clear cell carcinoma cell lines with known ARID1A mutational status; assay: colony formation assay, panel of ovarian clear cell carcinoma cell lines with or without ARID1A mutation; assay type: cell-based, human; conditions: 12 days
Experimental: After 12 days culture, integrated density of colony formed by the indicated cells was quantified using NIH Image J software, and values were normalized to vehicle control. Data represent triplicates from independent experiments. Error bars represent S.E.M. The p-value was calculated via two-tailed t-test.
Indicated ovarian clear cell carcinoma cell lines with known ARID1A mutational status were treated with the indicated concentration of HDAC6 inhibitor CAY10603 or vehicle control in a colony formation assay. After 12 days culture, integrated density of colony formed by the indicated cells was quantified using NIH Image J software, and values were normalized to vehicle control. Data represent triplicates from independent experiments. Error bars represent S.E.M.
Colony formation assays were performed as follows. Cell lines were infected with lentivirus pLKO.1-shRNAs or pLKO.1-control with puromycin selection marker. Infected cells were selected with 1 μg/mL of puromycin for 72 hours and the selected cells were seeded in 12-well or 24-well plates. Cell medium was changed every three days with appropriate drug doses for 14 days or until control wells became confluent. Colonies were washed twice with PBS and fixed with 10% methanol and 10% acetic acid in distilled water. Fixed colonies were stained with 0.005% crystal violet. Integrated density was measured using NIH ImageJ software.

[3] = system: ARID1A-mutated TOV21G and OVISE cells; assay: apoptosis (Annexin V, cleaved caspase 3, cleaved PARP p85) in ARID1A-mutated cells; assay type: cell-based, human
Experimental: FIG. 10 illustrates the finding that HDAC6 inhibition induces apoptosis in ARID1A-inactivated cells. […] Cells were collected and stained for apoptotic markers Annexin V. Apoptotic cells were quantified. Error bars represent standard error of the mean. The p-value was calculated via a two-tailed t-test.
FIG. 11 illustrates the results of the experiments of FIG. 10, but examined for apoptotic markers cleaved caspase 3 and cleaved PARP p85 by immunoblot. GAPDH expression was used as a loading control.
Cells were collected, incubated with an Annexin V-FITC antibody and subjected to flow cytometry analysis. Annexin V-positive cells (apoptotic) were measured with FloJo software. Mean of three independent experiments with S.E.M.
FIG. 78 illustrates percent apoptosis based on Annexin V staining in ARID1A mutated TOV21G cells treated with 1.25 μM ACY1215, 20 μM pan-caspase inhibitor Q-VD-Oph, or a combination for 48 hrs.
FIG. 79 illustrates percent apoptosis based on Annexin V staining in ARID1A mutated TOV21G cells treated with 1.25 μM ACY1215 for 48 hrs with or without knockdown of caspase 3 or caspase 9.
For immunoblotting, protein was isolated as described in Bitler et al. Nat. Med. 2015, 21, 231-238. Briefly, protein was extracted with RIPA buffer (150 mM NaCl, 1% NP40, 0.5% sodium deoxycholate, 0.1% SDS, 50 mM Tris pH 8.0, and 1 mM PMSF). Protein was separated on a SDS-PAGE and transferred to PVDF membrane. For immunoblot of p53 post-translation modifications, cells were treated with a proteasome inhibitor MG132 (10 μM) to stabilize p53 protein.
Annexin V and mitochondria membrane potentials were measured as follows. Phosphatidylserine externalization was detected using an Annexin V staining kit (Life Technologies) following the manufacturer's instructions. To measure change in mitochondria membrane potential cells were treated with 200 nM of tetramethylrhodamine, ethyl ester (TMRE; Abcam) for 15 min at 37° C. Annexin V and TMRE-positive cells were detected using the LSR18 and analyzed with the FlowJo software module.

human HDAC6 = target: T1, human HDAC6 (Homo sapiens, UniProt Q9UBN7); assay: in vitro biochemical HDAC6 deacetylation assay (LC-MS)
T1 construct: made in house
T1 sequence (Q9UBN7 1-1215): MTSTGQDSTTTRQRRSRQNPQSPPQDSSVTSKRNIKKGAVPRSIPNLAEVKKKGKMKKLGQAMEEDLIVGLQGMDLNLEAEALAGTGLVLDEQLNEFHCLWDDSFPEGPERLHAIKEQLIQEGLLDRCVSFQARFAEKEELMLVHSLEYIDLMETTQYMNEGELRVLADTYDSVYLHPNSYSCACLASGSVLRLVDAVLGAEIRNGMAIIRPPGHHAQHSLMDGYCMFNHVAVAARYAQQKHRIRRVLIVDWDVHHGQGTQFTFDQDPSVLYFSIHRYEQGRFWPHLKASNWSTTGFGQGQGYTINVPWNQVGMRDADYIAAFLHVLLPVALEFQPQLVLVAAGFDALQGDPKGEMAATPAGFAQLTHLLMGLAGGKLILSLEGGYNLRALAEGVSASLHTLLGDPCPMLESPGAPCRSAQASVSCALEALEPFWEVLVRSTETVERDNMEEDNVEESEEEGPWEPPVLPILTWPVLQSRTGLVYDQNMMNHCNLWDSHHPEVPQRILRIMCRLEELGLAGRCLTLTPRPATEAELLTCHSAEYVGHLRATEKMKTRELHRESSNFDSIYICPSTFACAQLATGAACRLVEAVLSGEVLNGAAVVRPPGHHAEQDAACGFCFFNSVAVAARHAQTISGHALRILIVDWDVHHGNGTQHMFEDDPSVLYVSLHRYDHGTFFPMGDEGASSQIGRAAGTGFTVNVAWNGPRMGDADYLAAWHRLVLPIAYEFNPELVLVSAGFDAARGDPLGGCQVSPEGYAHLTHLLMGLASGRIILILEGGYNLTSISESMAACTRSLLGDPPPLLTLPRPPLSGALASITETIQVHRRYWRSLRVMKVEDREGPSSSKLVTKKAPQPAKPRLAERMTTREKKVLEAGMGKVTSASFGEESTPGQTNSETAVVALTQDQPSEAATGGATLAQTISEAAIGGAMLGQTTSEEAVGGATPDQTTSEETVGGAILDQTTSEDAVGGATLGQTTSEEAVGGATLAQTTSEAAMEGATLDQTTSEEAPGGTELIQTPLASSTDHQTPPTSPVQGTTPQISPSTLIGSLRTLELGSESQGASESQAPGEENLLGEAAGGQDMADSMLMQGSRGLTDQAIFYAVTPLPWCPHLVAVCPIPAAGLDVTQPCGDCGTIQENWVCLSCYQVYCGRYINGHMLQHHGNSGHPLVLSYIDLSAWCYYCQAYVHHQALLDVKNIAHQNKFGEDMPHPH
Experimental: Deacetylation reactions were detected by discontinuous liquid chromatography-mass spectrometry (LC-MS). […] All assays were performed in triplicates.
In vitro biochemical HDAC6 deacetylation assays were performed as follows. Activity assay with human HDAC6 was based on a discontinuous liquid chromatography-mass spectrometry (LC-MS) assay as reported in Hai and Christianson, 2016. Briefly, 0.05 μM of HDAC6 was incubated with 100 μM of substrate Ac-LHSGTAK(ac)SVT-COOH in HEPES buffer [20 mM HEPES (pH 7.5), 100 mM NaCl, 5 mM KCl, 1 mM MgCl2] for 20 min at room temperature, and the reaction was quenched by the addition of acetonitrile (equal volume to the reaction solution). […] The assay was run in the presence of 10 μM of HDAC6 specific inhibitor ACY-1215 as a negative control. All the assays were performed in triplicates. The peptide was custom synthesized by Genscript. The human HDAC6 construct was expressed and purified as described in Hai and Christianson, 2016.

## CC(C)(C)OC(=O)Nc1ccc(-c2cc(C(=O)NCCCCCCC(=O)NO)no2)cc1 [CAY10603, tert-butyl 4-(3-((7-(hydroxyamino)-7-oxoheptyl)carbamoy)isoxazol-5-yl)phenylcarbamate]
[1]
  expression of p53 target genes (BAX, PUMA, NOXA, CDKN1A): not altered
[2]
  sensitivity of ARID1A-mutated cells compared with ARID1A wild-type cells: more sensitive

## c1cc(SSc2ccns2)sn1 [NU9056]
[3]; TIP60 inhibitor with ACY1215
  effect on apoptosis induced by ACY1215: suppressed apoptosis
  p53K120Ac levels: reduction of the p53K120Ac levels

## CC(C)[C@H](NC(=O)c1ccc2ccccc2n1)C(=O)N[C@@H](CC(=O)O)C(=O)COc1c(F)cccc1F [Q-VD-Oph]
[3]; TOV21G, 20 μM Q-VD-Oph with 1.25 μM ACY1215, 48 hrs
  effect on apoptosis induced by ACY1215: significantly suppressed the apoptosis

## Ac-LHSGTAK(Ac)SVT
Human HDAC6
  specific activity of HDAC6 with this substrate: 3.4±0.4 nmol product·nmol enzyme^−1·min^−1

## Ala-Lys(Ac)-Ala-NH2
Human HDAC6
  specific activity of HDAC6 with this substrate: 10.5±0.5 nmol product·nmol enzyme^−1·min^−1
